From patent US20190060325A1, “STABILIZED SOLID DOSAGE FORM” (SHIONOGI & CO., LTD., priority 2016, published 2019) come the findings set out here.

This data set in a line: Effect of excipients on suppression of related substance formation (compound (IV) alone or mixed with excipient, stored at 60° C. for two weeks, HPLC). Format: physicochemical. To be noted: compound (IV) only; for Relative amount (%) of related substance C after storage of 60° C./2 W: 60° C. two weeks. The protocol: Effect of excipients on suppression of related substance formation was examined. The excipients were physically (dry) mixed or were wet-kneaded using purified water with the compound (IV) in designated ratios in Table 1. The wet-kneaded materials were dried at 60° C. with ventilation. The dried materials were subdivided in glass bottles and the bottles were capped. The capped samples were stored at 60° C. for two weeks and the effect on suppression of related substance formation was estimated by the increased amount of related substances.
The relative amounts of the related substances in a 25 mg tablet obtained in the following Examples were determined by HPLC under the following conditions.
Detector: Ultraviolet spectrophotometer (wavelength: 245 nm)
Column: Unison UK-C18, 3 μm, 4.6×100 mm (Imtakt)
Column temperature: 40° C. Solution A: 0.1% trifluoroacetic acid solution
Flow rate: About 1.0 mL/min
• Compound (IV): 9 to 10 min; • Related substance A: 20 to 21 min; • Related substance B: 21 to 22 min; • Related substance C: 22 to 23 min; • Related substance D: 28 to 29 min; • Related substance E: 36 to 37 min. Injection volume: 10 μL Analytical time: 45 min
Related substances of compound (IV) were calculated by the following equation.
As: Peak area of compound (IV) in a standard solution Ai: Peak area of individual related substance ΣAi: Sum of peak area of individual related substance

Take `C[C@@]1(c2cc(NC(=O)c3ccc(C#N)cn3)ccc2F)C=CSC(N)=N1` [compound (IV)]: the “Relative amount (%) of related substance C after storage of 60° C./2 W” value by setting is: (milled, capped glass bottle, % peak area of HPLC) 0.19%; (wet-kneaded) 0.16%. For the same compound, the “Relative amount (%) of related substance C, Initial” value (milled, before storage) is “(Initial: 0.05%)”.
